Measured values taken from PMC5514153, “Targeting PTPRZ inhibits stem cell-like properties and tumorigenicity in glioblastoma cells” (Scientific Reports, 2017).

Assays:
Type in all cases: biochemical
[1] = biological target: T1, human PTPRZ1 (whole intracellular region, D1+D2) (Homo sapiens, UniProt P23471); test: In vitro PTPase assay (DiFMUP), PTPRZ1 whole intracellular region
T1 construct: Recombinant proteins corresponding to the entire intracellular regions (ICRs) of PTPRZ1, PTPRA, and PTPRM; made in house; host or cells: baculovirus-silkworm expression system
T1 sequence (P23471 1663-2315 limits assumed): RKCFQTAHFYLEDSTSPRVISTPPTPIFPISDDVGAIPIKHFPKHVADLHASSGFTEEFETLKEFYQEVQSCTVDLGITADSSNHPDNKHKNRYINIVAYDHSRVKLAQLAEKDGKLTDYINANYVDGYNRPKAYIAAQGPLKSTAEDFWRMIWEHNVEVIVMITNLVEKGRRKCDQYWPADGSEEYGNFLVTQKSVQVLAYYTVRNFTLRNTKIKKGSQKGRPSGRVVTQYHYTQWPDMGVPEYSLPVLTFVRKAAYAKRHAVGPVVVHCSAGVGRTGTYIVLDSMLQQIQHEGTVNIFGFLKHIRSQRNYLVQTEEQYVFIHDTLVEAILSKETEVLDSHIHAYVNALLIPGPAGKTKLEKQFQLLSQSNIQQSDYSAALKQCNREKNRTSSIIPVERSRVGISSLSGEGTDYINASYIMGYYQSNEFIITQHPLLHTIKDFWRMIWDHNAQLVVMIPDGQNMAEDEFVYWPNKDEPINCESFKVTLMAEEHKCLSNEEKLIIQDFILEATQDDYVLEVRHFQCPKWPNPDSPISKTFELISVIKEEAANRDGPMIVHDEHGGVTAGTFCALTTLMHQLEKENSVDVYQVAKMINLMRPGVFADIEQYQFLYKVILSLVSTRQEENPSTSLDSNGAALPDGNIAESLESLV
Experimental: Figure 4 NAZ2329, an allosteric inhibitor of R5 RPTP subfamily members. (A) Structure of NAZ2329. (B) Effect of preincubation of NAZ2329 on its inhibitory activity against PTPRZ. Recombinant human PTPRZ1 enzyme (the whole intracellular region) was premixed with NAZ2329 for the indicated times and followed by addition of a fluorogenic DiFMUP (non-specific PTP substrate, 6,8-difluoro-4-methylumbiliferyl phosphate) to measure PTP inhibitory activity. (C) Time dependence. The PTPRZ1 enzyme was added to the inhibitor–substrate mixture, and the inhibitory activity was determined at each time point relative to the vehicle control. (D) Reversibility of inhibition. PTPRZ1 enzymes were preincubated with NAZ2329 at the indicated concentrations for 30 min. The mixture was then 20-fold diluted, and recovered PTP activity was expressed as the relative activity compared with the vehicle-treated enzyme. (E) Lineweaver-Burk plot analysis. PTPRZ1 enzymes were preincubated with NAZ2329 for 60 min, and the PTP activity was measured using DiFMUP. (F) Concentration-inhibition curves of NAZ2329 for representative PTP members, including human PTPRZ and PTPRG (another R5 RPTP subfamily member), human PTPRS (R2A subfamily), human PTPRM (R2B subfamily), mouse PTPRB (R3 subfamily), human PTPRA (R4 subfamily), human PTPN1 (non-transmembrane PTP, NT1 subfamily), and human PTPN6 (NT2 subfamily), were generated. Assays were performed using DiFMUP. IC50 values obtained are shown in the inset. Data represent the averages of two or three separate experiments. TEXT PRINTED IN THE PICTURE: (F) NAZ2329: IC50 (μM): hPTPRZ1 7.5; IC50 (μM): hPTPRG 4.8; IC50 (μM): hPTPRA 35.7; IC50 (μM): hPTPRM 56.7; IC50 (μM): hPTPRS 23.7; IC50 (μM): mPTPRB 35.4; IC50 (μM): hPTPN6 15.2; IC50 (μM): hPTPN1 14.5
Recombinant proteins corresponding to the entire intracellular regions (ICRs) of PTPRZ1, PTPRA, and PTPRM were expressed using a baculovirus-silkworm expression system, and purified as described. The ICRs of PTPRG, PTPRS, and PTPRB and the catalytic domains of PTPN1 and PTPN6 were expressed as glutathione-S-transferase (GST) fusion proteins from each pGEX plasmid in Escherichia coli strain BL21 (ref. [6]). GST fusion proteins were purified by glutathione affinity chromatography as described. Chondroitinase ABC (chABC) was purchased from Sigma-Aldrich (catalog #C3667). Anti-PTPRZ-S, rabbit polyclonal antibodies against the extracellular region of PTPRZ was described previously (ref. [44]). The following are the specificities and sources of the commercially available antibodies used in the present study: Anti-RPTPβ (a monoclonal antibody against the intracellular domain of PTPRZ1 receptors, #610179, BD Biosciences), anti-SOX2 (#ab97959, Abcam), anti-POU3F2 (#12137, Cell Signaling), anti-OLIG2 (#AB9610, Millipore), anti-SALL2 (#12679–1-AP, Proteintech Group), anti-GAPDH (#ab9482, Abcam) anti-phosphotyrosine (PY20; #ab16389, Abcam), and anti-pY118-paxillin (#2541, Cell Signaling), mouse anti-paxillin antibody (#610569, BD Bioscience), anti-MBP (#sc-13914, Santa Cruz Biotechnology), and anti-NG2 proteoglycan (#AB5320, Millipore). […]

hPTPRA = biological target: T2, hPTPRA (Homo sapiens, UniProt P18433); test: In vitro PTPase assay (DiFMUP), PTPRA; conditions: 60-min preincubation
T2 construct: Recombinant proteins corresponding to the entire intracellular regions (ICRs) of PTPRZ1, PTPRA, and PTPRM; made in house; host or cells: baculovirus-silkworm expression system
Experimental: (§1) Figure 4 NAZ2329, an allosteric inhibitor of R5 RPTP subfamily members. (A) Structure of NAZ2329. (B) Effect of preincubation of NAZ2329 on its inhibitory activity against PTPRZ. Recombinant human PTPRZ1 enzyme (the whole intracellular region) was premixed with NAZ2329 for the indicated times and followed by addition of a fluorogenic DiFMUP (non-specific PTP substrate, 6,8-difluoro-4-methylumbiliferyl phosphate) to measure PTP inhibitory activity. (C) Time dependence. The PTPRZ1 enzyme was added to the inhibitor–substrate mixture, and the inhibitory activity was determined at each time point relative to the vehicle control. (D) Reversibility of inhibition. […] The mixture was then 20-fold diluted, and recovered PTP activity was expressed as the relative activity compared with the vehicle-treated enzyme. […] PTPRZ1 enzymes were preincubated with NAZ2329 for 60 min, and the PTP activity was measured using DiFMUP. […]
(§2) Recombinant proteins corresponding to the entire intracellular regions (ICRs) of PTPRZ1, PTPRA, and PTPRM were expressed using a baculovirus-silkworm expression system, and purified as described. The ICRs of PTPRG, PTPRS, and PTPRB and the catalytic domains of PTPN1 and PTPN6 were expressed as glutathione-S-transferase (GST) fusion proteins from each pGEX plasmid in Escherichia coli strain BL21 (ref. [6]). […]

hPTPRG = biological target: T3, hPTPRG (Homo sapiens, UniProt P23470); test: In vitro PTPase assay (DiFMUP), PTPRG; conditions: 60-min preincubation
T3 construct: The ICRs of PTPRG, PTPRS, and PTPRB and the catalytic domains of PTPN1 and PTPN6; GST (N); made in house; host or cells: Escherichia coli BL21
T3 sequence (P23470 763-1445 limits assumed): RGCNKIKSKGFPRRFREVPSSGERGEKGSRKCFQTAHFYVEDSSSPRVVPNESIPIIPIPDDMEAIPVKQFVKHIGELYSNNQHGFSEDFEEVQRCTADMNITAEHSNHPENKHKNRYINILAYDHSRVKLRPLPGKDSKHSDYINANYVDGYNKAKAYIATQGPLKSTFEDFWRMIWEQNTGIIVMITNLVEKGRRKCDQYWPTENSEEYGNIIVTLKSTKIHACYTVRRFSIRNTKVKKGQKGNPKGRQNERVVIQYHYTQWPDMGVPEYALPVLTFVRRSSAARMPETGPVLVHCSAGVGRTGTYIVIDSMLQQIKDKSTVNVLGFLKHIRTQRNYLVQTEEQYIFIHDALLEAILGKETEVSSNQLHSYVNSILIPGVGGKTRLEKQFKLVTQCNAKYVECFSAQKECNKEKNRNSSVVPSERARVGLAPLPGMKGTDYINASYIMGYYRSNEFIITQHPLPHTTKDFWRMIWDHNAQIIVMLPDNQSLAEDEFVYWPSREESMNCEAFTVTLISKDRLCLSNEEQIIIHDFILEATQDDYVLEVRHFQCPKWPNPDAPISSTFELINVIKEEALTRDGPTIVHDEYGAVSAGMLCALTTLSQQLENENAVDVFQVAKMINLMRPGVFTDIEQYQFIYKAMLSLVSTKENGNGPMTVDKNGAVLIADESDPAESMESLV
Experimental: as §1, §2

CCOc1ccc(C(F)(F)F)cc1CSc1ccsc1C(=O)NS(=O)(=O)c1ccccc1 [NAZ2329]
reversibility: enzymatic activity after 20-fold dilution of enzyme-compound mixture ([1]; 30 min preincubation, then 20-fold dilution): fully recovered to the control level | type of inhibition (Lineweaver-Burk plot) ([1]; 60 min preincubation, DiFMUP): noncompetitive-type inhibition | IC50 ([1]; whole intracellular region, DiFMUP, 60-min preincubation, read-out: IC50 hPTPRZ1 (D1+D2)): 7.5 µM | IC50 (hPTPRA): 35.7 µM | IC50 (hPTPRG): 4.8 µM
